Test results: ChEMBL document CHEMBL1143477, “Camptothecin binds to a synthetic peptide identified by a T7 phage display screen” (Bioorg Med Chem Lett, 2005)

Experiments:
[1] = Dissociation constant for binding of camptothecin to the synthetic peptide NSSQSARR by using quartz-crystal microbalance (QCM) method after compound dissolved in 10 % DMSO at 25 degree C
[2] = Dissociation constant for binding of camptothecin to the synthetic peptide NSSQSARR by surface plasmon resonance (SPR) method after compound dissolved in 10 % DMSO at 25 degree C

With CC[C@@]1(O)C(=O)OCc2c1cc1n(c2=O)Cc2cc3ccccc3nc2-1 [CAMPTOTHECIN] the Kd [1] was 94 nM and the Kd [2] was 112 nM.
